Assay type in all cases: in vivo
Data set [1] deals with Mais LL (Liberty-Link-Mais, maize tolerant or resistant to glufosinate-ammonium). The data set is described as follows: Field trial, damage to transgenic maize (tolerance by crop plants). On the procedure:
(§1) Transgenic maize plants with a resistance to one or more herbicides (A) together with typical weed plants were grown in the open on 2×5 m plots under natural field conditions; alternatively, weed infestation occurred naturally when the maize plants were grown.
The damage to, and the development of, all aerial parts of the plants was recorded.
Abbreviations generally used in the tables: • g of a.s./ha=gram of active substance (100% active substance) per hectare • E^A=Total of the herbicidal effects of the individual applications • E^C Colby's expected value (cf. scoring in Table 1) • “Mais LL”=®Liberty-Link-Mais, maize which is tolerant or resistant to glufosinate-ammonium, […]

The next data set has as its system Euphorbia heterophylla. The data set is described as follows: Field trial with maize, herbicidal action. The note with it: for Herbicidal action (%) against Euphorbia heterophylla: application 6-leaf stage, scoring 44 days after application; for Herbicidal action (%) against EPHHL: application 4-leaf stage, scoring 6 weeks after application. Here is the method:
as §1
(§2) […] The damage to, and the development of, all aerial parts of the plants was recorded. Scoring was done on the basis of a percentage sale (100% action=all plants destroyed; 50% action=50% of the plants and green parts of the plants destroyed; 0% action=no recognizable effect=like control plot. The mean of the score values of in each case 4 plots was calculated.

A further data set has as its system Echinochloa crus-galli. The data set is described as follows: Field trial with maize, herbicidal action. Here is the method: as §1, §2
In a further data set the test system is Convolvulus arvensis. Put plainly: Field trial with maize, herbicidal action. The note with it: application 3- to 4-leaf stage, scoring 28 days after application. Here is the method: as §1
(§3) 2, 4, 6 and 8 weeks after the application, the herbicidal activity of the active substances or active substance mixtures was scored visually with reference to the treated plots in comparison to untreated control plots. The damage to, and the development of, all aerial parts of the plants was recorded. Scoring was done on the basis of a percentage sale (100% action=all plants destroyed; 50% action=50% of the plants and green parts of the plants destroyed; 0% action=no recognizable effect=like control plot. The mean of the score values of in each case 4 plots was calculated.

The test system of the next data set is Sorghum bicolor. The data set is described as follows: Field trial with maize, herbicidal action. As to conditions: pre-emergence application, scoring 46 days after pre-emergence application. Here is the method:
as §1, §3

A further data set has as its system Fagopyrum esculentum. Put plainly: Field trial with maize, herbicidal action. As to conditions: application 3- to 4-leaf stage, scoring 24 days after application. Here is the method:
as §1, §2

In another data set the test system is Galium aparine. The data set is described as follows: Field trial with maize, herbicidal action. As to conditions: application 3- to 4-leaf stage, scoring 24 days after application. On the procedure: as §1, §2
The subject of another data set is Commelina benghalensis. The data set is described as follows: Field trial with maize, herbicidal action. The note with it: application 3-leaf stage, scoring 42 days after application. On the procedure: as §1, §3

For `CS(=O)(=O)c1ccc(C(=O)C2C(=O)CCCC2=O)c(Cl)c1` [(B1.14), 2-(2-chloro-4-mesylbenzoyl)cyclohexane-1,3-dione], the “Damage to Mais LL in %” value in data set [1] (200 g of a.s./ha, application 6-leaf stage) came to 0%; in data set [1] (300 g of a.s./ha, application 6-leaf stage), 0%; in data set [1] (400 g of a.s./ha, application 6-leaf stage), 0%. Moreover, the “Herbicidal action (%) against Euphorbia heterophylla” value was found to be 60% with Euphorbia heterophylla (200 g of a.s./ha), 68% with Euphorbia heterophylla (300 g of a.s./ha) and 75% in the data set on Euphorbia heterophylla (400 g of a.s./ha).
Consider `CCOCN(C(=O)CCl)c1c(C)cccc1CC` [(B1.4), 2-chloro-N-(ethoxymethyl)-N-(2-ethyl-6-methylphenyl)acetamide], for which the “Herbicidal action (%) against Echinochloa crus-galli” value is reported as 10% with Echinochloa crus-galli (375 g of a.s./ha, application 3- to 4-leaf stage, scoring 42 days after application); 40% in the data set with Echinochloa crus-galli (750 g of a.s./ha, application 3- to 4-leaf stage, scoring 42 days after application); 45% in the data set with Echinochloa crus-galli (1500 g of a.s./ha, application 3- to 4-leaf stage, scoring 42 days after application).
As to `O=C(O)COc1ccc(Cl)cc1Cl` [(B3.3), 2,4-dichlorophenoxyacetic acid], the “Herbicidal action (%) against Convolvulus arvensis” value with Convolvulus arvensis (500 g of a.s./ha) is on record as 20%.
Consider `CCCCCCCCSC(=O)Oc1cc(Cl)nnc1-c1ccccc1` [(B2.2), 6-chloro-3-phenylpyridazin-4-yl S-octyl thiocarbonate], for which the “Herbicidal action (%) against Convolvulus arvensis” value in the data set on Convolvulus arvensis (900 g of a.s./ha) was determined as 40%.
Consider `O=C(O)c1nc(Cl)ccc1Cl` [(B3.4), 3,6-dichloro-2-pyridinecarboxylic acid], for which the “Mais LL” value in data set [1] (100 g of a.s./ha, application 3-leaf stage, Table 14, head names no quantity) was 0. Moreover, the “Herbicidal action (%) against Echinochloa crus-galli” value in the data set with Echinochloa crus-galli (100 g of a.s./ha, application 3-leaf stage, scoring 21 days after application) was determined as 15%.
Take `COCC(C)N(C(=O)CCl)c1c(C)csc1C` (centres unmarked) [(B1.12), 2-chloro-N-(2,4-dimethyl-3-thienyl)-N-(2-methoxy-1-methylethyl)acetamide]: the “Herbicidal action (%) against Convolvulus arvensis” value in the data set with Convolvulus arvensis (900 g of a.s./ha) was determined as 30%.
For the compound `CC(C)N(C(=O)COc1nnc(C(F)(F)F)s1)c1ccc(F)cc1` [(B1.13), 4′-fluoro-N-isopropyl-2-(5-trifluoromethyl-1,3,4-thiadiazol-2-yloxy)acetanilide], the “Herbicidal action (%) against Echinochloa crus-galli” value in the data set with Echinochloa crus-galli (125 g of a.s./ha, application 3-leaf stage, scoring 28 days after application) is given as 25%; with Echinochloa crus-galli (250 g of a.s./ha, application 3-leaf stage, scoring 28 days after application), 30%; in the data set on Echinochloa crus-galli (500 g of a.s./ha, application 3-leaf stage, scoring 28 days after application) it was 55%.
Take `CS(=O)(=O)c1cc(C(F)(F)F)ccc1C(=O)c1cnoc1C1CC1` [(B2.5), (5-cyclopropyl-4-isoxazolyl)[2-(methylsulfonyl)-4-(trifluoromethyl)phenyl]-methasone]: the figures for the “Herbicidal action (%) against Sorghum bicolor” value with Sorghum bicolor (25 g of a.s./ha), in the data set on Sorghum bicolor (50 g of a.s./ha) and with Sorghum bicolor (100 g of a.s./ha) were 20%, 40% and 75%, respectively.
Turning to `COc1nc(NC(=O)NS(=O)(=O)c2ccccc2C(F)(F)F)nc(C(F)(F)F)n1` [(B3.8), N-[[[4-methoxy-6-(trifluoromethyl)-1,3,5-triazin-2-yl)amino]-carbonyl]-2-(trifluoromethyl)benzenesulfonamide], the “Herbicidal action (%) against Fagopyrum esculentum” value is given as 30% in the data set on Fagopyrum esculentum (15 g of a.s./ha), 60% in the data set with Fagopyrum esculentum (30 g of a.s./ha) and 78% in the data set on Fagopyrum esculentum (60 g of a.s./ha). Also, the “Herbicidal action (%) against Galium aparine” value was 45% in the data set with Galium aparine (15 g of a.s./ha), 65% in the data set on Galium aparine (30 g of a.s./ha) and 85% with Galium aparine (60 g of a.s./ha).
Take `CS(=O)(=O)c1ccc(C(=O)C2C(=O)CCCC2=O)c([N+](=O)[O-])c1` [(B1.16), 2-(4-mesyl-2-nitrobenzoyl)cyclohexane-1,3-dione]: the “Damage to Mais LL in %” value in data set [1] (50 g of a.s./ha, application 4-leaf stage) came out at 0%; in data set [1] (100 g of a.s./ha, application 4-leaf stage) it was 0%; in data set [1] (150 g of a.s./ha, application 4-leaf stage), 0%. In addition, the “Herbicidal action (%) against EPHHL” value came out at 60% with Euphorbia heterophylla (50 g of a.s./ha), 58% with Euphorbia heterophylla (100 g of a.s./ha) and 70% with Euphorbia heterophylla (150 g of a.s./ha).
In the case of `CCc1cccc(CC)c1N(COC)C(=O)CCl` [(B1.6), 2-chloro-N-(2,6-diethylphenyl)-N-(methoxymethyl)acetamide], the “Mais LL” value in data set [1] (1920 g of a.s./ha, application 3-leaf stage, Table 11, head names no quantity) is 0. In the data set on Commelina benghalensis (1920 g of a.s./ha), the “Herbicidal action (%) against Commelina benghalensis” value worked out at 37%.
`CCc1cnc(C2=NC(C)(C(C)C)C(=O)N2)c(C(=O)O)c1` (centres unmarked) [(A3.2), imazethapyr]: in data set [1] (in vivo), the “Mais LL” value was 0. Further, the “Herbicidal action (%) against Commelina benghalensis” value in the data set with Commelina benghalensis (100 g of a.s./ha) was determined as 73%.
In the case of `Cc1ccn2nc(S(=O)(=O)Nc3c(F)cccc3F)nc2n1` [(B2.8)], the “Herbicidal action (%) against Echinochloa crus-galli” value amounted to 40% with Echinochloa crus-galli (50 g of a.s./ha, application 3-leaf stage, scoring 21 days after application) and 65% with Echinochloa crus-galli (70 g of a.s./ha, application 3-leaf stage, scoring 21 days after application).

These data come from patent US8772199B2, “Herbicidal compositions for tolerant or resistant maize crops” (Bayer Intellectual Property GmbH, priority 1998, dated 2014).
